Laboratory results taken from the NIST ThermoML archive (doi:10.1016/j.jct.2006.05.009).
± gives the expanded uncertainty stated by the source.

Key:
[1] = molar heat capacity at constant pressure; conditions: 101.33 kPa, Crystal 2
[2] = Molar enthalpy of transition or fusion

Cn1c(=O)c2c(ncn2C)n(C)c1=O [caffeine]
molar heat capacity at constant pressure ([1]; 80.83 K): 98.31 ± 1.8 J/K/mol | molar heat capacity at constant pressure ([1]; 84.15 K): 101.95 ± 1.8 J/K/mol | molar heat capacity at constant pressure ([1]; 87.22 K): 104.62 ± 1.9 J/K/mol | molar heat capacity at constant pressure ([1]; 90.15 K): 106.27 ± 1.9 J/K/mol | molar heat capacity at constant pressure ([1]; 93.05 K): 109.02 ± 1.9 J/K/mol | molar heat capacity at constant pressure ([1]; 95.91 K): 112.23 ± 1.9 J/K/mol | molar heat capacity at constant pressure ([1]; 98.73 K): 116.53 ± 2 J/K/mol | molar heat capacity at constant pressure ([1]; 101.49 K): 119.06 ± 2 J/K/mol | molar heat capacity at constant pressure ([1]; 104.21 K): 121.47 ± 2.1 J/K/mol | molar heat capacity at constant pressure ([1]; 106.88 K): 123.99 ± 2.1 J/K/mol | molar heat capacity at constant pressure ([1]; 109.98 K): 125.77 ± 2.1 J/K/mol | molar heat capacity at constant pressure ([1]; 113.03 K): 127.49 ± 2.1 J/K/mol | molar heat capacity at constant pressure ([1]; 115.96 K): 130.48 ± 2.2 J/K/mol | molar heat capacity at constant pressure ([1]; 118.81 K): 132.67 ± 2.2 J/K/mol | molar heat capacity at constant pressure ([1]; 121.58 K): 134.84 ± 2.2 J/K/mol | molar heat capacity at constant pressure ([1]; 124.27 K): 136.76 ± 2.2 J/K/mol | molar heat capacity at constant pressure ([1]; 126.89 K): 139.36 ± 2.3 J/K/mol | molar heat capacity at constant pressure ([1]; 129.43 K): 140.97 ± 2.3 J/K/mol | molar heat capacity at constant pressure ([1]; 131.92 K): 142.97 ± 2.3 J/K/mol | molar heat capacity at constant pressure ([1]; 134.34 K): 144.92 ± 2.3 J/K/mol | molar heat capacity at constant pressure ([1]; 136.69 K): 145.99 ± 2.4 J/K/mol | molar heat capacity at constant pressure ([1]; 138.99 K): 148.53 ± 2.4 J/K/mol | molar heat capacity at constant pressure ([1]; 141.24 K): 149.98 ± 2.4 J/K/mol | molar heat capacity at constant pressure ([1]; 143.42 K): 150.47 ± 2.4 J/K/mol | molar heat capacity at constant pressure ([1]; 145.52 K): 151.98 ± 2.4 J/K/mol | molar heat capacity at constant pressure ([1]; 148 K): 155.83 ± 2.5 J/K/mol | molar heat capacity at constant pressure ([1]; 150.06 K): 156.99 ± 2.5 J/K/mol | molar heat capacity at constant pressure ([1]; 152.08 K): 157.88 ± 2.5 J/K/mol | molar heat capacity at constant pressure ([1]; 154.08 K): 159.38 ± 2.5 J/K/mol | molar heat capacity at constant pressure ([1]; 156.06 K): 160.61 ± 2.5 J/K/mol | molar heat capacity at constant pressure ([1]; 158.01 K): 161.82 ± 2.5 J/K/mol | molar heat capacity at constant pressure ([1]; 159.95 K): 162.55 ± 2.6 J/K/mol | molar heat capacity at constant pressure ([1]; 161.87 K): 163.14 ± 2.6 J/K/mol | molar heat capacity at constant pressure ([1]; 163.77 K): 164.64 ± 2.6 J/K/mol | molar heat capacity at constant pressure ([1]; 165.79 K): 164.91 ± 2.6 J/K/mol | molar heat capacity at constant pressure ([1]; 168.47 K): 166.4 ± 2.6 J/K/mol | molar heat capacity at constant pressure ([1]; 171.41 K): 166.83 ± 2.6 J/K/mol | molar heat capacity at constant pressure ([1]; 174.32 K): 167.9 ± 2.6 J/K/mol | molar heat capacity at constant pressure ([1]; 177.21 K): 169.06 ± 2.6 J/K/mol | molar heat capacity at constant pressure ([1]; 180.03 K): 169.58 ± 2.6 J/K/mol | molar heat capacity at constant pressure ([1]; 182.8 K): 171.5 ± 2.7 J/K/mol | molar heat capacity at constant pressure ([1]; 185.57 K): 172.7 ± 2.7 J/K/mol | molar heat capacity at constant pressure ([1]; 188.3 K): 174.64 ± 2.7 J/K/mol | molar heat capacity at constant pressure ([1]; 191 K): 176.3 ± 2.7 J/K/mol | molar heat capacity at constant pressure ([1]; 193.71 K): 178.38 ± 2.7 J/K/mol | molar heat capacity at constant pressure ([1]; 196.39 K): 179.3 ± 2.8 J/K/mol | molar heat capacity at constant pressure ([1]; 199.05 K): 180.41 ± 2.8 J/K/mol | molar heat capacity at constant pressure ([1]; 201.7 K): 181.59 ± 2.8 J/K/mol | molar heat capacity at constant pressure ([1]; 204.31 K): 182.99 ± 2.8 J/K/mol | molar heat capacity at constant pressure ([1]; 206.91 K): 184.79 ± 2.8 J/K/mol | molar heat capacity at constant pressure ([1]; 209.47 K): 186.12 ± 2.8 J/K/mol | molar heat capacity at constant pressure ([1]; 212.08 K): 187.01 ± 2.8 J/K/mol | molar heat capacity at constant pressure ([1]; 214.76 K): 189.97 ± 2.9 J/K/mol | molar heat capacity at constant pressure ([1]; 217.47 K): 191.2 ± 2.9 J/K/mol | molar heat capacity at constant pressure ([1]; 220.2 K): 192.68 ± 2.9 J/K/mol | molar heat capacity at constant pressure ([1]; 222.95 K): 194.21 ± 2.9 J/K/mol | molar heat capacity at constant pressure ([1]; 226.26 K): 195.06 ± 2.9 J/K/mol | molar heat capacity at constant pressure ([1]; 230.04 K): 197.34 ± 3 J/K/mol | molar heat capacity at constant pressure ([1]; 233.76 K): 198.99 ± 3 J/K/mol | molar heat capacity at constant pressure ([1]; 237.43 K): 200.1 ± 3 J/K/mol | molar heat capacity at constant pressure ([1]; 241.09 K): 202.07 ± 3 J/K/mol | molar heat capacity at constant pressure ([1]; 244.7 K): 202.6 ± 3 J/K/mol | molar heat capacity at constant pressure ([1]; 248.28 K): 203.14 ± 3 J/K/mol | molar heat capacity at constant pressure ([1]; 251.82 K): 203.17 ± 3 J/K/mol | molar heat capacity at constant pressure ([1]; 255.32 K): 204.06 ± 3.1 J/K/mol | molar heat capacity at constant pressure ([1]; 258.78 K): 205.75 ± 3.1 J/K/mol | molar heat capacity at constant pressure ([1]; 259.39 K): 207.72 ± 3.1 J/K/mol | molar heat capacity at constant pressure ([1]; 262.25 K): 207.77 ± 3.1 J/K/mol | molar heat capacity at constant pressure ([1]; 265.07 K): 209.13 ± 3.1 J/K/mol | molar heat capacity at constant pressure ([1]; 267.83 K): 210.94 ± 3.1 J/K/mol | molar heat capacity at constant pressure ([1]; 270.58 K): 212.28 ± 3.2 J/K/mol | molar heat capacity at constant pressure ([1]; 273.31 K): 213.56 ± 3.2 J/K/mol | molar heat capacity at constant pressure ([1]; 276.04 K): 215.35 ± 3.2 J/K/mol | molar heat capacity at constant pressure ([1]; 278.76 K): 217.05 ± 3.2 J/K/mol | molar heat capacity at constant pressure ([1]; 281.49 K): 217.99 ± 3.2 J/K/mol | molar heat capacity at constant pressure ([1]; 284.22 K): 220.07 ± 3.2 J/K/mol | molar heat capacity at constant pressure ([1]; 286.92 K): 223.22 ± 3.3 J/K/mol | molar heat capacity at constant pressure ([1]; 289.58 K): 223.75 ± 3.3 J/K/mol | molar heat capacity at constant pressure ([1]; 292.23 K): 225.69 ± 3.3 J/K/mol | molar heat capacity at constant pressure ([1]; 294.87 K): 226.47 ± 3.3 J/K/mol | molar heat capacity at constant pressure ([1]; 297.52 K): 227.12 ± 3.3 J/K/mol | molar heat capacity at constant pressure ([1]; 300.14 K): 227.17 ± 3.3 J/K/mol | molar heat capacity at constant pressure ([1]; 302.75 K): 228.98 ± 3.4 J/K/mol | molar heat capacity at constant pressure ([1]; 305.33 K): 230.29 ± 3.4 J/K/mol | molar heat capacity at constant pressure ([1]; 307.91 K): 230.71 ± 3.4 J/K/mol | molar heat capacity at constant pressure ([1]; 310.51 K): 233.27 ± 3.4 J/K/mol | molar heat capacity at constant pressure ([1]; 313.09 K): 234.23 ± 3.4 J/K/mol | molar heat capacity at constant pressure ([1]; 315.65 K): 234.61 ± 3.4 J/K/mol | molar heat capacity at constant pressure ([1]; 318.19 K): 235.23 ± 3.4 J/K/mol | molar heat capacity at constant pressure ([1]; 320.86 K): 237.37 ± 3.5 J/K/mol | molar heat capacity at constant pressure ([1]; 323.42 K): 238.29 ± 3.5 J/K/mol | molar heat capacity at constant pressure ([1]; 325.99 K): 238.92 ± 3.5 J/K/mol | molar heat capacity at constant pressure ([1]; 328.63 K): 240.12 ± 3.5 J/K/mol | molar heat capacity at constant pressure ([1]; 331.31 K): 243.07 ± 3.5 J/K/mol | molar heat capacity at constant pressure ([1]; 333.96 K): 245.08 ± 3.5 J/K/mol | molar heat capacity at constant pressure ([1]; 336.61 K): 246.31 ± 3.6 J/K/mol | molar heat capacity at constant pressure ([1]; 339.22 K): 248.21 ± 3.6 J/K/mol | molar heat capacity at constant pressure ([1]; 341.76 K): 249.29 ± 3.6 J/K/mol | molar heat capacity at constant pressure ([1]; 344.27 K): 251.55 ± 3.6 J/K/mol | molar heat capacity at constant pressure ([1]; 346.83 K): 253.2 ± 3.6 J/K/mol | molar heat capacity at constant pressure ([1]; 349.18 K): 254.04 ± 3.7 J/K/mol | molar heat capacity at constant pressure ([1]; 351.69 K): 255.21 ± 3.7 J/K/mol | molar heat capacity at constant pressure ([1]; 354.36 K): 256.94 ± 3.7 J/K/mol | molar heat capacity at constant pressure ([1]; 357.01 K): 258.67 ± 3.7 J/K/mol | molar heat capacity at constant pressure ([1]; 359.66 K): 260.51 ± 3.7 J/K/mol | molar heat capacity at constant pressure ([1]; 362.27 K): 261.86 ± 3.7 J/K/mol | molar heat capacity at constant pressure ([1]; 364.86 K): 262.9 ± 3.8 J/K/mol | molar heat capacity at constant pressure ([1]; 367.44 K): 264.99 ± 3.8 J/K/mol | molar heat capacity at constant pressure ([1]; 369.95 K): 266.24 ± 3.8 J/K/mol | molar heat capacity at constant pressure ([1]; 372.45 K): 266.46 ± 3.8 J/K/mol | molar heat capacity at constant pressure ([1]; 374.91 K): 267.26 ± 3.8 J/K/mol | molar heat capacity at constant pressure ([1]; 377.39 K): 269.44 ± 3.8 J/K/mol | molar heat capacity at constant pressure ([1]; 379.84 K): 270.33 ± 3.8 J/K/mol | molar heat capacity at constant pressure ([1]; 382.28 K): 271.84 ± 3.9 J/K/mol | molar heat capacity at constant pressure ([1]; 384.69 K): 272.71 ± 3.9 J/K/mol | molar heat capacity at constant pressure ([1]; 387.08 K): 274.88 ± 3.9 J/K/mol | Triple point temperature (Crystal 1): 509 ± 0.8 K | Triple point temperature (Crystal 2): 413.39 ± 0.77 K | Molar enthalpy of transition or fusion ([2]; Crystal 1): 4.75 ± 0.22 kcal/mol | Molar enthalpy of transition or fusion ([2]; Crystal 2): 0.82 ± 0.139 kcal/mol
